Reference: patent US7399777B2, “Diarylcycloalkyl derivatives, processes for their preparation and their use as pharmceuticals” (Sanofi-Aventis Deutschland GmbH, priority 2001, dated 2008)

target: T1, human PPARα (Homo sapiens, UniProt Q07869); test: PPARα reporter cell line assay (stably transfected HEK cells, GR-GAL4-PPARα fusion protein, firefly luciferase reporter); format: cell-based; details: agonist activity in HEK PPARα reporter cell line; 24 h incubation; luciferase luminescence
T1 construct: expressed in transfected cells; host or cells: HEK cells (human embryo kidney), stably transfected with pcDNA3-GR-GAL4-humanPPARα and the luciferase reporter pdeltaMG4LZ
T1 sequence (Q07869 167-468): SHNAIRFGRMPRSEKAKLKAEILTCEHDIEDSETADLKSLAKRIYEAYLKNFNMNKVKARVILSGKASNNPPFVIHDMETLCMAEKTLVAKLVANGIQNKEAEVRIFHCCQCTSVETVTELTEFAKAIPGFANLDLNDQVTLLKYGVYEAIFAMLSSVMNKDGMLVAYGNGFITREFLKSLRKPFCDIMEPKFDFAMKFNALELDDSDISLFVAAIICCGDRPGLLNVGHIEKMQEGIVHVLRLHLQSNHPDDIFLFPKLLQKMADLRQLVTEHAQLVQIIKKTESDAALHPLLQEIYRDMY
Text: To analyze the effectiveness of substances which bind to human PPARα, activating it in agonistic manner, a stable transfected HEK cell line (HEK=human embryo kidney) designated here as “PPARα reporter cell line” is used. It contains two genetic elements, a firefly luciferase reporter element and a PPARα fusion protein (GR-GAL4-PPARα) which controls the expression of the firefly luciferase reporter element in a PPARα ligand dependent way.
The PPARα reporter cell line was established in two steps: First, the firefly luciferase reporter element was constructed and stably transfected into HEK cells. Five DNA binding sites for the yeast transcription factor GAL4 (five repetitions of the sequence 5′-CGGAGTACTGTCCTCCGAG-3′) (SEQ ID NO:1) were cloned 5′ upstream of a 68 bp minimal RNA polymerase II promoter from the GR mouse mammary tumor virus long terminal repeat (accession # V01175) providing a CCAAT-box as well as a TATA-element. Cloning and sequencing was done as described by Sambrook J. et. al. (Molecular cloning, Cold Spring Harbor Laboratory Press, 1989). The complete Photinus pyralis luciferase gene (accession # M 15077) was cloned 3′ downstream of the GAL4 binding sites and the MMTV minimal promoter. The firefly luciferase reporter element consisting of 5 GAL4 binding sites, the MMTV minimal promoter and the full length luciferase gene was recloned into a plasmid backbone harboring a Zeozin resistence gene leading to plasmid “pdeltaMG4LZ”. This vector was transfected in HEK cells as described by Ausubel, F. M. et al. (Current protocols in molecular biology, Vol. 1-3, John Wiley & Sons, Inc., 1995). Stable clones have been selected using Zeozin as a selection agent (0.5 mg/ml).
In a second step, the PPARα fusion protein (GR-GAL4-PPARα) that controls expression of the firefly luciferase reporter element, was stably integrated in this cell background. For this purpose the cDNAs coding for the N-terminal 76 amino acids of the human glucocorticoid receptor (“GR”, accession # P04150) have been linked to amino acids 1-147 of the yeast GAL4-protein (accession # P04386) followed by the ligand binding domain of humanPPARα (amino acids S167-Y468, accession # S74349). The GR-GAL4-human PPARα construct was cloned into plasmid pcDNA3 (Invitrogen) were its expression is driven constitutively by the Cytomegalovirus promoter. The plasmid pcDNA3-GR-GAL4-humanPPARα was transfected in a stable HEK-cell clone that already contained the firefly luciferase reporter element described above. A double-transfected cell line containing both, the firefly luciferase reporter element as well as the GR-GAL4-humanPPARα fusion protein, has been selected on medium supplemented with Zeozin (0.5 mg/ml) and G418 (0.5 mg/ml).
The activity of PPARα agonists is determined in a three day test, described below:
The PPARα reporter cell line is cultivated up to 80% confluence in DMEM medium (# 41965-039, Life Technologies) with the following additives: 10% cs-FCS (fetal calf serum, #SH-30068.03, Hyclone), antibiotics (0.5 mg/ml of zeozin [#R250-01, Invitrogen], 0.5 mg/ml of G418 [#10131-019, Life Technologies], 1% penicillin streptomycin solution [#15140-031, Life Technologies]) and 2 mM of L-glutamine (#25030-032, Life Technologies). Cultivation is carried out in standard cell culture bottles (# 33111, Becton Dickinson) in a cell culture incubator at 37° C. and 5% CO2. The 80% confluent cells are washed once with 30 ml of PBS (#14190-094, Life Technologies), treated with 2 ml of trypsin solution (#25300-054, Life Technologies) at 37° C. for 2 min, taken up in 5 ml of the medium described above and counted in a cell counter. After dilution to 500,000 cells/ml, in each case 35,000 cells are sown into each well of a 96-well microtiter plate having a clear plastic bottom (#3610, Coming Costar). The plates are incubated in a cell incubator at 37° C. and 5% CO2 for 24 h.
The PPARα agonists to be tested are dissolved in DMSO at a concentration of 10 mM. […]

Compound	EC50 [nM]
Cc1cccc(CO[C@@H]2CCC[C@H](COCc3coc(-c4ccc(F)cc4)n3)C2)c1C(=O)O (racemic) [Example XXIV, rac-cis-2-{3-[2-(4-Fluorophenyl)oxazol-4-ylmethoxymethyl]cyclohexyloxymethyl}-6-methylbenzoic acid]	0.9
Cc1cccc(COC[C@@H]2CCC[C@H](OCc3coc(-c4ccc(F)cc4)n3)C2)c1C(=O)O (racemic) [XXV, rac-cis-2-{3-[2-(4-Fluorophenyl)oxazol-4-ylmethoxy]cyclohexylmethoxymethyl}-6-methylbenzoic acid]	1.3
Cc1cccc(CC[C@@H]2CCC[C@H](OCc3coc(-c4ccc(F)cc4)n3)C2)c1C(=O)O (racemic) [XXVIII, rac-cis-2-(2-{3-[2-(4-Fluorophenyl)oxazol-4-ylmethoxy]cyclohexyl}ethyl)-6-methylbenzoic acid]	0.67
COc1ccc(-c2nc(CO[C@H]3CCC[C@@H](OCc4cccc(C)c4C(=O)O)C3)co2)cc1 (relative stereo) [IV, cis-2-(3-(2-(4-Methoxyphenyl)oxazol-4-ylmethoxy)cyclohexyloxymethyl)-6-methylbenzoic acid]	0.3
Cc1cccc(CO[C@H]2CCC[C@@H](OCc3coc(-c4ccccc4)n3)C2)c1C(=O)O (single isomer, unassigned) [VI, cis-2-Methyl-6-[3-(2-phenyloxazol-4-ylmethoxy)cyclohexyloxymethyl]benzoic acid]	0.18
Cc1cccc(CO[C@H]2CCC[C@@H](OCc3nc(-c4ccc(F)cc4)oc3C)C2)c1C(=O)O (stereo in doubt) [Example X, cis-2-{3-[2-(4-Fluorophenyl)-5-methyloxazol-4-ylmethoxy]cyclohexyloxymethyl}-6-methylbenzoic acid]	0.5
Cc1cccc(CO[C@@H]2CCC[C@H](OCc3nc(-c4cccc(C(F)(F)F)c4)oc3C)C2)c1C(=O)O [Example L, 2-{1R,3S-3-[2-(3-Trifluoromethylphenyl)-5-methyloxazol-4-ylmethoxy]cyclohexyloxymethyl}-6-methylbenzoic acid]	0.19
COc1cccc(-c2nc(CO[C@H]3CCC[C@@H](OCc4cccc(C)c4C(=O)O)C3)c(C)o2)c1 [IL, 2-{1R,3S-3-[2-(3-Methoxy-phenyl)-5-methyl-oxazol-4-ylmethoxy]-cyclohexyloxymethy}-6-methylbenzoic acid]	0.52
Cc1cccc(-c2nc(CO[C@H]3CCC[C@@H](OCc4cccc(C)c4C(=O)O)C3)c(C)o2)c1 [LIII, 2-{1R,3S-3-[2-(3-Methylphenyl)-5-methyloxazol-4-ylmethoxy]cyclohexyloxymethyl}-6-methylbenzoic acid]	0.4
Cc1ccc(-c2nc(CO[C@H]3CCC[C@@H](OCc4cccc(C)c4C(=O)O)C3)c(C)o2)cc1C [LIV, 2-{1R,3S-3-[2-(3,4-Dimethylphenyl)-5-methyloxazol-4-ylmethoxy]cyclohexyloxymethyl}-6-methylbenzoic acid]	0.08

Further lines, results first:

EC50 [nM]	Compound
1	2-{3-[2-(4-Fluorophenyl)oxazol-4-ylmethoxy]cyclohexyloxy}-6-methylbenzoic acid [Example I]
1.4	Cc1cccc(CC[C@H]2CCC[C@H](OCc3coc(-c4ccc(F)cc4)n3)C2)c1C(=O)O (racemic) [XXIX, rac-trans-2-(2-{3-[2-(4-Fluorophenyl)oxazol-4-ylmethoxy]cyclohexyl}ethyl)-6-methylbenzoic acid]
0.3	Cc1cccc(CO[C@@H]2CCC[C@H](OCc3coc(-c4ccc(F)cc4)n3)C2)c1C(=O)O (relative stereo) [Example II, (+)-cis-2-(3-(2-(4-Fluorophenyl)oxazol-4-ylmethoxy)cyclohexyloxymethyl)-6-methylbenzoic acid]
0.04	Cc1cccc(CO[C@@H]2CCC[C@H](OCc3nc(-c4ccc(F)cc4)oc3C)C2)c1C(=O)O (stereo in doubt) [IX, cis-2-(3-[2-(4-Fluorophenyl)-5-methyloxazol-4-ylmethoxy]cyclohexyloxymethyl}-6-methylbenzoic acid]
4	Cc1ccc(-c2nc(CO[C@@H]3CCC[C@H](OCc4cccc(C)c4C(=O)O)C3)co2)cc1 (stereo in doubt) [VII, cis-2-Methyl-6-[3-(2-p-tolyloxazol-4-ylmethoxy)cyclohexyloxymethyl]benzoic acid]
0.04	Cc1ccc(-c2nc(CO[C@H]3CCC[C@@H](OCc4cccc(C)c4C(=O)O)C3)co2)cc1 (stereo in doubt) [VIII, cis-2-Methyl-6-[3-(2-p-tolyloxazol-4-ylmethoxy)cyclohexyloxymethyl]benzoic acid]
0.2	Cc1cccc(CO[C@@H]2CCC[C@H](OCc3nc(-c4ccccc4)oc3C)C2)c1C(=O)O [Example LX, 2-Methyl-6-[1R,3S-3-(5-methyl-2-phenyloxazol-4-ylmethoxy)cyclohexyloxymethyl]benzoic acid]
10	Cc1cccc(CO[C@H]2CCC[C@@H](OCc3nc(-c4ccccc4)oc3C)C2)c1C(=O)O [Example LXI, 2-Methyl-6-[1S,3R-3-(5-methyl-2-phenyloxazol-4-ylmethoxy)cyclohexyloxymethyl]benzoic acid]
0.11	Cc1cccc(CO[C@@H]2CCC[C@H](OCc3nc(-c4ccc(C(C)C)cc4)oc3C)C2)c1C(=O)O [Example LXIX, 2-Methyl-6-[(1R,3S)-3-(5-methyl-2-(4-(2-propyl)-phenyl)-oxazol-4-ylmethoxy)-cyclohexyloxymethyl]-benzoic acid]
0.31	Cc1cccc(CO[C@@H]2CCC[C@H](OCc3nc(-c4cccc(Cl)c4)oc3C)C2)c1C(=O)O [LI, 2-{1R,3S-3-[2-(3-Chlorophenyl)-5-methyloxazol-4-ylmethoxy]cyclohexyloxymethyl}-6-methylbenzoic acid]
0.1	Cc1cccc(CO[C@@H]2CCC[C@H](OCc3nc(-c4ccc(Cl)cc4)oc3C)C2)c1C(=O)O [LII, 2-{1R,3S-3-[2-(4-Chlorophenyl)-5-methyloxazol-4-ylmethoxy]cyclohexyloxymethyl}-6-methylbenzoic acid]
0.62	Cc1cccc(CO[C@@H]2CCC[C@H](OCc3nc(-c4cccc(C#N)c4)oc3C)C2)c1C(=O)O [LIX, 2-{1R,3S-3-[2-(3-Cyanophenyl)-5-methyloxazol-4-ylmethoxy]cyclohexyloxymethyl}-6-methylbenzoic acid]
0.09	Cc1ccc(-c2nc(CO[C@H]3CCC[C@@H](OCc4cccc(C)c4C(=O)O)C3)c(C)o2)c(C)c1 [LV, 2-{1R,3S-3-[2-(2,4-Dimethylphenyl)-5-methyloxazol-4-ylmethoxy]cyclohexyloxymethyl}-6-methylbenzoic acid]
0.54	Cc1ccccc1-c1nc(CO[C@H]2CCC[C@@H](OCc3cccc(C)c3C(=O)O)C2)c(C)o1 [LVI, 2-{1R,3S-3-[2-(2-Methylphenyl)-5-methyloxazol-4-ylmethoxy]cyclohexyloxymethyl}-6-methylbenzoic acid]
